Measurements as given in US11254654B2, “Heterochromatin gene repression inhibitors” (The University of North Carolina at Chapel Hill, priority 2017, dated 2022).
Structures can show the parent of a compound that is named as a salt.

What was measured:
Type in all cases: cell-based, mouse
[1] = system: HP1-mediated gene repression; assay: UNC2524 structure-activity relationship assay, CiA:Oct4 N118/N163 flow cytometry; details: 10 μM, 48 hrs
Method: Day 0, CiA:Oct4 N118/163 cells were grown in ES media and seeded at a density of 10,000 cells per well (100,000 cells/mL) into gelatin coated 96 well plates. Day 1, media was aspirated and replaced with 100 μL fresh ES media containing +/−6 nM rapamycin and 10 μM of each compound derived for SAR. Day 2, culture media was aspirated away and […] fresh ES media containing +/−6 nM rapamycin and 10 μM of compounds were added as on Day 1. Day 3, the media was aspirated out of the wells and the cells were washed with PBS and trypsinized using 0.25% trypsin-EDTA. Trypsin was quenched with serum. Cells were resuspended by pipetting to prepare the plates for flow cytometry analysis as described above.
Compounds 2-8 were chemically synthesized from UNC2524 (compound 1) (FIG. 10A). To ascertain the biological activity of these chemical derivatives, CiA:Oct4 N118/N163 cells were used. Cells were treated with rapamycin plus compounds 2 and 5-8 for 48-hours prior to analysis by flow cytometry. Compound activity was confirmed by an increase in % inhibition compared to control samples. Compounds 5 and 6 added a pentenal chain and BOC group to the piperidine ring while compound 7 substituted a hexyl chain for the pyrrolidine. […] Further, it was identified that the 7-methoxy side chain was amenable to modification with a benzene ring in compound 8, while preserving most of the biological activity (˜51%).
Referring to FIG. 10A, a series of compounds derived from compound 1 (UNC2524) were designed to optimize compound activity and determine amenability of compounds for affinity purification methods. Referring to FIG. 10B, CiA:Oct4 N118/N163 cells were treated with SAR compounds at 10 μM for 48 hrs+/−6 nM rapamycin. Flow cytometry analysis was used to determine the % GFP (+) population. […] (p≤0.05*, 0.01**).

HP1γ = assay: ChIP-qPCR at CiA:Oct4 locus, TSS+489
Method: (§1) 10-15 cm plates of cells grown to confluence were washed with PBS and trypsinized 10 min with 0.25% trypsin-EDTA. ES media was added to quench the trypsin, and cells were resuspended prior to counting using a Countess II Automated Cell Counter (ThermoFisher). Cell suspension was centrifuged at 300×g for 5 min. Cell pellet was washed with PBS and pelleted at 300×g for 5 min. Cells were resuspended and crosslinked with 1% formaldehyde for 10 min. 2.5 M glycine (0.125 M final) was added and samples were put on ice to stop the crosslinking. Nuclei were isolated by incubating cells on ice for 10 min in CiA NP Rinse 1 (50 mM HEPES pH 8.0, 140 mM NaCl, 1 mM EDTA, 10% glycerol, 0.5% NP40, 0.25% Triton X100). Nuclei were pelleted at 1200×g for 5 min at 4° C. and resuspended in CiA NP Rinse 2 (10 mM Tris pH 8.0, 1 mM EDTA, 0.5 mM EGTA, 200 mM NaCl). Nuclei were pelleted at 1200×g for 5 min at 4° C. Nuclei were resuspended in shearing buffer (0.1% SDS, 1 mM EDTA pH 8, 10 mM Tris HCl, pH 8) and sonicated for 5 min using a Covaris sonicator (Hathaway et al., 2012). Input DNA and ChIP DNA was isolated according to Active Motif High Sensitivity ChIP-IT kit procedure. ChIP for H3K9me3 used Abcam (ab8898) primary antibody.
(§2) Enrichment of ChIP DNA was determined by qPCR. 384-well PCR plates contained 2 μL of template DNA and 8 μL of reaction mix of primers and FastStart Universal SYBR Green 2× master mix (Roche). Samples were run on a ViiA7 Real-Time PCR system (Applied Biosystems) (Pattenden et al., 2016). Plates were setup in technical duplicate or triplicate. Samples were analyzed using the comparative ΔΔCt method and normalized against an intergenic control region (Hathaway et al., 2012; Livak & Schmittgen, 2001). Experiment was performed in a minimum biological triplicate and data is representative of sample average. T-test were used to determine significant p-values.
(§3) To further characterize the effects of compound 2 on the HP1-heterochromatin pathway, perturbations in the levels of HP1γ, H3K4me3, and G9a at the CiA:Oct4 locus were assayed for using ChIP followed by […] analysis. Enrichment levels were determined at 489 bp downstream of the TSS and normalized to a house-keeping gene, intracisternal A-type particles (IAP). As shown previously, HP1γ functions similarly to HP1α in our inhibition assay. […] No change in H3K4me3 levels were detected upon compound 2 treatment despite the decrease in H3K9me3 (FIG. 11E). […]
(§4) Referring to FIG. 11A, CiA:Oct4 csHP1α recruiting cells were incubated with 7.5 μM compound 2+/−6 nM rapamycin for 48 hrs and representative brightfield and GFP fluorescence images were acquired at 20×. […] GFP expression was analyzed by flow cytometry. […]

G9a = assay: ChIP-qPCR at CiA:Oct4 locus, TSS+489; details: four treatment conditions
Method: as §1, §2, §3, §4

H3K4me3 = assay: ChIP-qPCR at CiA:Oct4 locus, TSS+489; details: 48 hr treatment, +/- rapamycin
Method: as §1, §2, §3, §4

CiA:Oct4 N118/N163 cells = assay: Compound 2 activity and fluorescence microscopy; details: 7.5 μM, 48 hrs
Method: Day 0, CiA:Oct4 N118/N163 cells were plated into 96 well plate and 10 or 15 cm plate formats. Day 1, media was aspirated and replaced with fresh ES media +/−7.5 μM compound 2+/−6 nM rapamycin. Day 2, media was aspirated and replaced with fresh ES media +/−7.5 μM compound 2+/−6 nM rapamycin. Day 3, media was removed from 96 well plate and cells were washed with PBS prior to trypsinization and flow cytometry analysis as described above to confirm functional inhibition of compound 2.
Prior to imaging, ES media was removed from 10-15 cm plates and replaced with PBS to decrease background fluorescence. Cells were imaged using an Olympus IX71 microscope analyzed using Cellsens software. Representative images were taken in 2 random plate locations for each of the four conditions. Image levels were normalized using Adobe Photoshop.
In order to confirm that compound 2 was inhibiting H3K9me3 deposition, CiA:Oct4 N118/N163 cells were grown for 48-hours with rapamycin mediating HP1 recruitment, +/−compound 2 (FIG. 11G). Representative brightfield and fluorescence images were taken for the four sample types ((−) rapamycin/(−) compound 2, (−) rapamycin/(+) compound 2, (+) rapamycin/(−) compound 2, (+) rapamycin/(+) compound 2). […] Subsequently, all samples were analyzed by flow cytometry to confirm the inhibitory effects of compound 2 on HP1-mediated gene repression. […]

H3K9me3 = assay: ChIP-qPCR at CiA:Oct4 locus, TSS+489; details: 48 hr, + 6 nM rapamycin, 489 bp downstream of TSS
Method: 10-15 cm plates of cells grown to confluence were washed with PBS and trypsinized 10 min with 0.25% trypsin-EDTA. ES media was added to quench the trypsin, and cells were resuspended prior to counting using a Countess II Automated Cell Counter (ThermoFisher). Cell suspension was centrifuged at 300×g for 5 min. Cell pellet was washed with PBS and pelleted at 300×g for 5 min. Cells were resuspended and crosslinked with 1% formaldehyde for 10 min. 2.5 M glycine (0.125 M final) was added and samples were put on ice to stop the crosslinking. […]
Enrichment of ChIP DNA was determined by qPCR. […] Samples were analyzed using the comparative ΔΔCt method and normalized against an intergenic control region (Hathaway et al., 2012; Livak & Schmittgen, 2001). […]
Chromatin immunoprecipitation (ChIP) was used to determine the levels of H3K9me3 at the Oct4 locus upon treatment with compound 2. […] For this reason, the levels of H3K9me3 were analyzed at 489 bp downstream of the TSS in all four sample conditions. qPCR was used to amplify this region in addition to an intergenic control region. […]
as §4

## CCCCCCNc1nc(N[C@H]2CCCNC2)c2cc(OC)c(OC)cc2n1 [compound 7, (S)—N^2-Hexyl-6,7-Dimethoxy-N^4-(Piperidin-3-yl)Quinazoline-2,4-Diamine]
[1]
  Toxicity in SAR assay: toxicity and low cell counts
[1]; + 6 nM rapamycin
  % inhibition compared with parent compound 1: decrease in inhibition

## C=CCCCN1CCC[C@H](Nc2nc(N3CCCC3)nc3cc(OC)c(OC)cc23)C1 [compound 5, (S)-6,7-Dimethoxy-N-(1-(Pent-4-en-1-yl)Piperidin-3-yl)-2-(Pyrrolidin-1-yl)Quinazolin-4-Amine, Trifluoroacetic Acid Salt]
[1]; + 6 nM rapamycin
  % inhibition compared with parent compound 1: decrease in inhibition

## COc1cc2nc(N3CCCC3)nc(N[C@@H]3CCCN(C(=O)OC(C)(C)C)C3)c2cc1OC [compound 6, Tert-Butyl (R)-3-((6,7-Dimethoxy-2-(Pyrrolidin-1-yl)Quinazolin-4-yl)Amino)Piperidine-1-Carboxylate]
[1]; + 6 nM rapamycin
  % inhibition compared with parent compound 1: decrease in inhibition

## COc1cc2nc(N3CCCC3)nc(N[C@@H]3CCCNC3)c2cc1OC [compound 2, (R)-6,7-Dimethoxy-N-(Piperidin-3-yl)-2-(Pyrrolidin-1-yl)Quinazolin-4-Amine Trifluoroacetic Acid Salt]
HP1γ; compound alone, no HP1 recruitment
  Increase of HP1γ levels compared to controls: 46%
HP1γ; with HP1 recruitment (rapamycin)
  Decrease of HP1γ levels compared to HP1 recruitment alone: 37%
G9a
  Change in G9a levels: No significant changes
H3K4me3
  Change in H3K4me3 levels: No change
CiA:Oct4 N118/N163 cells; +/- 6 nM rapamycin
  ES cell differentiation and colony morphology: did not result in gross cell differentiation or effect colony morphology
CiA:Oct4 N118/N163 cells; with and without rapamycin
  GFP expression by flow cytometry compared to untreated controls: increased GFP expression
H3K9me3
  Decrease of H3K9me3 enrichment compared to plus rapamycin control: ~9 fold
[1]; + 6 nM rapamycin
  % inhibition compared with parent compound 1: increase in activity over the parent

## COc1cc2c(N[C@H]3CCCNC3)nc(N3CCCC3)nc2cc1OCCCN1CCCCC1 [compound 8, (S)-6-Methoxy-7-(3-(Piperidin-1-yl)Propoxy)-N-(Piperidin-3-yl)-2-(Pyrrolidin-1-yl)Quinazolin-4-Amine Trifluoroacetic Acid Salt]
[1]; + 6 nM rapamycin
  Biological activity preserved: ~51%
